In patent US20200278355A1, “CONJUGATED PROTEINS AND USES THEREOF” (THE SCRIPPS RESEARCH INSTITUTE, priority 2017, published 2020):

How the values were obtained:
KEAP1-mutant NSCLC cells = experiment: Colony formation in soft agar, KEAP1-mutant NSCLC cells; assay type: cell-based, human; conditions: 5 μM
Description: Based on its in situ activity (FIG. 6D and FIG. 12A, 12G) and selectivity (FIGS. 6A, 6B), BPK-29 was chosen for additional biological studies. […] Exogenous expression of […] the growth inhibition caused by BPK-29.

NR0B1-SNW1 interaction = biological target: T1, NR0B1-SNW1 interaction (Homo sapiens, UniProt P51843); experiment: In vitro binding assay: NR0B1 in H2122 lysate binding to immobilized FLAG-SNW1
T1 construct: endogenous in cells; host or cells: NR0B1: H2122 cell lysate
T1 sequence (P51843 1-470): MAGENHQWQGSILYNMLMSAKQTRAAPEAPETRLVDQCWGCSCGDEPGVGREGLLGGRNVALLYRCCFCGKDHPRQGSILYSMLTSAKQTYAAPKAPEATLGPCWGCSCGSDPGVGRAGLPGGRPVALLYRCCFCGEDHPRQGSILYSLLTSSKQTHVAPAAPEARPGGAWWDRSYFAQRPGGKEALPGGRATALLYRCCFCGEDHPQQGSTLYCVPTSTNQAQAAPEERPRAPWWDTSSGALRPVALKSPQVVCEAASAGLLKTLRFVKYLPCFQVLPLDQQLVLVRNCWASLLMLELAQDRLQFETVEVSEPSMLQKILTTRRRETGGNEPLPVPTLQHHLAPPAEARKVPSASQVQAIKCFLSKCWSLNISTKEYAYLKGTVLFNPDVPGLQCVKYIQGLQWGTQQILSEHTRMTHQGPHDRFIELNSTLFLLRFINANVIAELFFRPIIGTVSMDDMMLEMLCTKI
Experimental: H2122 clarified cell lysate (100 μL, 1 mg ml^−1) in IP-buffer were incubated with the indicated compounds or vehicle (DMSO) for 3 hours at 4° C. with rotation. Following treatment, 3 volumes of IP-buffer was added along with immobilized FLAG-SNW1 beads (30 μL, 50:50 slurry), which was incubated for an additional hour at 4° C. Beads were washed three times with IP-buffer supplemented with 500 mM NaCl. Immunoprecipitated proteins were resolved by SDS-PAGE and analyzed by immunoblotting. NR0B1 and HA-NR0B1 levels were determined by using the NR0B1 antibody (Cell Signaling). IC50 curves were determined using Prism 6 (Graphpad) software, with maximum and minimum values set at 100% NR0B1 bound 0% NR0B1 bound respectively.
Statistical analysis was preformed using GraphPad Prism version 6 or 7 for Mac, GraphPad Software, La Jolla Calif. USA, or the R statistical programming language. Inhibition curves of the NR0B1-SNW1 interactions by NR0B1-ligand are fit as using log(inhibitor) vs % normalized remaining of NR0B1-SNW1 interaction and data points are plotted as the mean±SD (n=2-5 per group). NR0B1 half-life was calculated from a one-phase exponential decay curve plotted as mean±SD (4-10 per group). Statistical significance was defined as p<0.05 and determined by 2-tailed Student's t-test (FIG. 1I, FIG. 3B), two-way Anova with Bonferroni post-test analysis (FIG. 1J) or correlation analysis using Pearson product-moment correlation coefficient (FIG. 4B, FIG. 10G).
Next, a chemical probe targeting C274 of NR0B1 was developed. Using an in vitro binding assay (FIG. 5B), an ˜80-member library of cysteine-reactive electrophilic compounds was screened at 50 μM for blockade of interactions between endogenous NR0B1 and recombinant FLAG-SNW1 in cell lysates (FIG. 5C). Among the hits (>50% blockade) were a series of N-disubstituted chloroacetamides (CAs), including BPK-26 (FIGS. 5D, 5E), that were selected for further investigation. […] Both BPK-26 and BPK-29 inhibited the NR0B1-SNW1 interaction with IC50 values between 10-20 μM in vitro (FIG. 11C).

NR0B1 = biological target: T2, NR0B1 (Homo sapiens, UniProt P51843); experiment: isoTOP-ABPP of compound-treated H460 cells: NR0B1; assay type: cell-based; conditions: NSCLC cells, 40 μM, 3 h
T2 construct: H460 cells or H460 cells expressing luciferase in a 10 cm plate were incubated with indicated compounds; endogenous in cells; host or cells: H460 (NSCLC, KEAP1-mutant)
T2 sequence (P51843 1-470): T1 sequence (P51843 1-470)
Experimental: For analysis of NR0B1 ligands or control compound reactivity, H460 cells or H460 cells expressing luciferase in a 10 cm plate were incubated with indicated compounds in serum/dye-free RPMI for 3 hours at 37° C. Cells were washed once ice-cold PBS and lysed in 1% Triton X-100 dissolved in PBS with protease inhibitors (Sigma) by sonication. Samples were clarified by centrifugation for 10 min at 16,000×g. Lysate was adjusted to 1.5 mg ml^−1 in 500 μL.
Samples were labeled for 1 h at ambient temperature with 100 μM iodoacetamide alkyne (1, IA-alkyne, 5 μL of 10 mM stock in DMSO). Samples were conjugated by copper-catalyzed azide-alkyne cycloaddition (CuAAC) to isotopically labeled, TEV-cleavable tags (TEV-tags). Heavy CuAAC reaction mixtures was added to the DMSO-treated or shGFP control samples and light CuAAC reaction mixture was added to compound-treated or shNRF2 samples. The CuAAC reaction mixture consisted of TEV tags (light or heavy, 10 μL of 5 mM stocks in DMSO, final concentration=100 μM), 1 mM tris(2-carboxyethyl)phosphine hydrochloride (TCEP; fresh 50× stock in water, final concentration=1 mM), ligand (17× stock in DMSO:t-butanol 1:4, final concentration=100 μM) and 1 mM CuSO4 (50× stock in water, final concentration=1 mM). The samples were allowed to react for 1 h at which point the samples were centrifuged (16,000×g, 5 min, 4° C.). The resulting pellets were sonicated in ice-cold methanol (500 μL) and the resuspended light- and heavy-labeled samples were then combined pairwise and centrifuged (16,000×g, 5 min, 4° C.). The pellets were solubilized in PBS containing 1.2% SDS (1 mL) with sonication and heating (5 min, 95° C.) and any insoluble material was removed by an additional centrifugation step at ambient temperature (14,000×g, 1 min).
For each sample, 100 μL of streptavidin-agarose beads slurry (Fisher) was washed in 10 mL PBS and then resuspended in 6 mL PBS (final concentration 0.2% SDS in PBS). The SDS-solubilized proteins were added to the suspension of streptavidin-agarose beads and the bead mixture was rotated for 3 h at ambient temperature. After incubation, the beads were pelleted by centrifugation (1,400×g, 3 min) and were washed (2×10 mL PBS and 2×10 mL water).
The beads were transferred to eppendorftubes with 1 mL PBS, centrifuged (1,400×g, 3 min), and resuspended in PBS containing 6 M urea (500 μL). To this was added 10 mM DTT (25 μL of a 200 mM stock in water) and the beads were incubated at 65° C. for 15 mins. 20 mM iodoacetamide (25 μL of a 400 mM stock in water) was then added and allowed to react at 37° C. for 30 mins with shaking. The bead mixture was diluted with 900 μL PBS, pelleted by centrifugation (1,400×g, 3 min), and resuspended in PBS containing 2 M urea (200 μL). To this was added 1 mM CaCl2 (2 μL of a 200 mM stock in water) and trypsin (2 μg, Promega, sequencing grade) and the digestion was allowed to proceed overnight at 37° C. with shaking. The beads were separated from the digest with Micro Bio-Spin columns (Bio-Rad) by centrifugation (1,000×g, 1 min), washed (2×1 mL PBS and 2×1 mL water) and then transferred to fresh eppendorf tubes with 1 mL water. The washed beads were washed once further in 140 μL TEV buffer (50 mM Tris, pH 8, 0.5 mM EDTA, 1 mM DTT) and then resuspended in 140 μL TEV buffer. 5 μL TEV protease (80 μM) was added and the reactions were rotated overnight at 29° C. The TEV digest was separated from the beads with Micro Bio-Spin columns by centrifugation (1,400×g, 3 min) and the beads were washed once with water (100 μL). The samples were then acidified to a final concentration of 5% (v/v) formic acid and stored at −80° C. prior to analysis.
Samples processed for multidimensional liquid chromatography tandem mass spectrometry (MudPIT) were pressure loaded onto a 250 μm (inner diameter) fused silica capillary columns packed with C18 resin (Aqua 5 μm, Phenomenex). […]

[1] = test system: cysteine reactivity in H2122 and H1975 cells; experiment: isoTOP-ABPP of cysteine reactivity changes after staurosporine or AZD9291 treatment; assay type: cell-based, human; conditions: staurosporine 1 μM, 4 h (H2122, H1975); AZD9291 1 μM, 24 h (H1975)
Experimental: For analysis of cysteines that change following induction of apoptosis, H2122 and H1975 cells were treated with DMSO or staurosporine (1 μM, 4 h) in full RPMI. H1975 cells were treated with DMSO or AZD9291 (1 μM, 24 h) in full RPMI. Cells were lysed as described above. […] Samples were conjugated by copper-catalyzed azide-alkyne cycloaddition (CuAAC) to isotopically labeled, TEV-cleavable tags (TEV-tags). Heavy CuAAC reaction mixtures was added to the DMSO-treated or shGFP control samples and light CuAAC reaction mixture was added to compound-treated or shNRF2 samples. The CuAAC reaction mixture consisted of TEV tags (light or heavy, 10 μL of 5 mM stocks in DMSO, final concentration=100 μM), 1 mM tris(2-carboxyethyl)phosphine hydrochloride (TCEP; fresh 50× stock in water, final concentration=1 mM), ligand (17× stock in DMSO:t-butanol 1:4, final concentration=100 μM) and 1 mM CuSO4 (50× stock in water, final concentration=1 mM). The samples were allowed to react for 1 h at which point the samples were centrifuged (16,000×g, 5 min, 4° C.). The resulting pellets were sonicated in ice-cold methanol (500 μL) and the resuspended light- and heavy-labeled samples were then combined pairwise and centrifuged (16,000×g, 5 min, 4° C.). […] Samples were analyzed using an LTQVelos Orbitrap mass spectrometer (Thermo Scientific) coupled to an Agilent 1200-series quaternary pump. […]

Structure (SMILES): COc1cc(CN(C(=O)CCl)c2cc(C(C)(C)C)ccc2OC)ccc1OCc1ccccc1 [BPK-27, N-(4-(benzyloxy)-3-methoxybenzyl)-N-(5-(tert-butyl)-2-methoxyphenyl)-2-chloroacetamide]
- colony formation in soft agar (KEAP1-mutant NSCLC cells): much less of an effect
- inhibition of the NR0B1-SNW1 interaction (NR0B1-SNW1 interaction; tested concentration range of 1-50 μM): did not inhibit
- engagement of C274 of NR0B1 (NR0B1): did not engage C274

Structure (SMILES): C=CC(=O)Nc1cc(Nc2nccc(-c3cn(C)c4ccccc34)n2)c(OC)cc1N(C)CCN(C)C [AZD9291]
- changes in cysteine reactivity [1]: neither of which caused substantive changes in cysteine reactivity

Structure (SMILES): CN[C@@H]1C[C@H]2O[C@@](C)([C@@H]1OC)n1c3ccccc3c3c4c(c5c6ccccc6n2c5c31)C(=O)NC4 [staurosporine]
- changes in cysteine reactivity [1]: neither of which caused substantive changes in cysteine reactivity

Structure (SMILES): Cc1ccccc1C(=O)N1CCCC(N(Cc2ccccc2)C(=O)CCl)CC1 (stereo not drawn) [BPK-28, N-benzyl-2-chloro-N-(1-(2-methylbenzoyl)azepan-4-yl)acetamide]
- relative potency for inhibition of FLAG-SNW1 binding to NR0B1 (structure-activity relationship) (NR0B1-SNW1 interaction; compounds at 50 μM): only modest reductions in potency
